Source: ChEMBL document CHEMBL4411321, “Discovery of Potent, Selective, and Orally Bioavailable Estrogen-Related Receptor-γ Inverse Agonists To Restore the Sodium Iodide Symporter Function in Anaplastic Thyroid Cancer” (J Med Chem, 2019)
Activity calls are given as the source filed them. The calls are words filed in the database; no cut-off is given here.

How the values were obtained:
CYP1A2 = molecular target: T1, CYP1A2 (Homo sapiens, UniProt P05177); assay: Inhibition of CYP1A2 in human liver microsomes assessed as reduction in phenacetin O-deethylase activity at 10 uM preincubated for 5 mins followed by NADPH addition and measured after 15 mins by LC-MS/MS analysis relative to control; assay type: ADME; settings: probe phenacetin (O-deethylation)
T1 sequence (P05177 whole entry): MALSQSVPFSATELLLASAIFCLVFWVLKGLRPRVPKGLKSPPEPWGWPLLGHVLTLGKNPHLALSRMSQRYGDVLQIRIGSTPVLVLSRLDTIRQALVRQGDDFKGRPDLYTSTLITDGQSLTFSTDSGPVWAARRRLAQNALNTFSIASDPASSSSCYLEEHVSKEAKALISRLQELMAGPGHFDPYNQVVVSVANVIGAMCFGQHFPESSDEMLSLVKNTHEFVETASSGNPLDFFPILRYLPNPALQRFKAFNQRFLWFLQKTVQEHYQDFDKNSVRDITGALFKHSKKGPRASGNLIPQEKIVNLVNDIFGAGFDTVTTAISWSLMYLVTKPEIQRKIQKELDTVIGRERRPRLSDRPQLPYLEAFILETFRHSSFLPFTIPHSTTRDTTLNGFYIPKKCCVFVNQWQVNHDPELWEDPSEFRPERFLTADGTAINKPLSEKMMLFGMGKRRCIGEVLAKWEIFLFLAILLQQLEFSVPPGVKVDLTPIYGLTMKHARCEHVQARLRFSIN

CYP2C9 = CYP2C9 (Homo sapiens, UniProt P11712); assay: Inhibition of CYP2C9 in human liver microsomes assessed as reduction in tolbutamide 4-hydroxylase activity at 10 uM preincubated for 5 mins followed by NADPH addition and measured after 15 mins by LC-MS/MS analysis relative to control; assay type: ADME; settings: probe tolbutamide (4-hydroxylation)
CYP2C19 = CYP2C19 (Homo sapiens, UniProt P33261); assay: Inhibition of CYP2C19 in human liver microsomes assessed as reduction in S-mephenytoin 4-hydroxylase activity at 10 uM preincubated for 5 mins followed by NADPH addition and measured after 15 mins by LC-MS/MS analysis relative to control; assay type: ADME; settings: probe S-mephenytoin (4-hydroxylation)
CYP2D6 = CYP2D6 (Homo sapiens, UniProt P10635); assay: Inhibition of CYP2D6 in human liver microsomes assessed as reduction in dextromethorphan O-demethylase activity at 10 uM preincubated for 5 mins followed by NADPH addition and measured after 15 mins by LC-MS/MS analysis relative to control; assay type: ADME; settings: probe dextromethorphan (O-demethylation)
CYP3A4 = CYP3A4 (Homo sapiens, UniProt P08684); assay: Inhibition of CYP3A4 in human liver microsomes assessed as reduction in midazolam 1-hydroxylase activity at 10 uM preincubated for 5 mins followed by NADPH addition and measured after 15 mins by LC-MS/MS analysis relative to control; assay type: ADME; settings: probe midazolam (1-hydroxylation)
[1] = Metabolic stability in human liver microsomes assessed as compound remaining at 1 uM after 30 mins in presence of NADPH regeneration system by LC-MS/MS analysis; assay type: ADME, Microsome; settings: read-out: Stability
[2] = Metabolic stability in dog liver microsomes assessed as compound remaining at 1 uM after 30 mins in presence of NADPH regeneration system by LC-MS/MS analysis; assay type: ADME, Canis lupus familiaris, Microsome; settings: read-out: Stability
[3] = Metabolic stability in rat liver microsomes assessed as compound remaining at 1 uM after 30 mins in presence of NADPH regeneration system by LC-MS/MS analysis; assay type: ADME, Microsome; settings: read-out: Stability
[4] = Metabolic stability in mouse liver microsomes assessed as compound remaining at 1 uM after 30 mins in presence of NADPH regeneration system by LC-MS/MS analysis; assay type: ADME, Microsome; settings: read-out: Stability
[5] = Effective permeability of the compound at 10 uM after 5 hrs by PAMPA; assay type: ADME; settings: read-out: Peff
[6] = AUC (0 to infinity) in Sprague-Dawley rat at 1 mg/kg, iv by LC-MS/MS analysis; assay type: ADME, organism-based; design: dose 1 mg/kg, time infinity, route intravenous; settings: in vivo
[7] = AUC (0 to infinity) in Sprague-Dawley rat at 9 to 10 mg/kg, po via gavage by LC-MS/MS analysis; assay type: ADME, organism-based; settings: in vivo
[8] = Tmax in Sprague-Dawley rat at 9 to 10 mg/kg, po via gavage by LC-MS/MS analysis; assay type: ADME, organism-based; settings: in vivo
[9] = molecular target: T2, Estrogen-related receptor gamma (Homo sapiens) (UniProt P62508); assay: Inverse agonist activity at ERRgamma in human BHT101 cells assessed as restoration of sodium iodide symporter function by measuring increase in radioiodide avidity at 6 to 12 uM after 24 hrs by gamma counting analysis based [125-I]-iodide uptake assay; assay type: cell-based
T2 sequence (whole entry): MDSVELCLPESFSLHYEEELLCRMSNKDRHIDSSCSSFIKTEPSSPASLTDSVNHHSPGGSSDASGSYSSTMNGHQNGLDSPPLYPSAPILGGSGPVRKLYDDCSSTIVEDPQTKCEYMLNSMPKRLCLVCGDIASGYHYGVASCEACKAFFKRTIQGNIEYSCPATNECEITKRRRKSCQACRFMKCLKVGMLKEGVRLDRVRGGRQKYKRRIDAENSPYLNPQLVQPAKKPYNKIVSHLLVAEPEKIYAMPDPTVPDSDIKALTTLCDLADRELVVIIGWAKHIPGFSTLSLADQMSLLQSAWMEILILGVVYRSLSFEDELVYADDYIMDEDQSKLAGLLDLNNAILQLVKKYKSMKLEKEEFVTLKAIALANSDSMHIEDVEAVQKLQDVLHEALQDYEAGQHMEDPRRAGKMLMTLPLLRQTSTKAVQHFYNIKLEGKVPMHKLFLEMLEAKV

[10] = molecular target: T2, Estrogen-related receptor gamma (Homo sapiens); assay: Inverse agonist activity at ERRgamma in human CAL62 cells assessed as restoration of sodium iodide symporter function by measuring increase in radioiodide avidity at 6 to 12 uM after 24 hrs by gamma counting analysis based [125-I]-iodide uptake assay; assay type: cell-based
[11] = molecular target: T2, Estrogen-related receptor gamma (Homo sapiens); assay: Inverse agonist activity at ERRgamma in human BHT101 cells assessed as restoration of sodium iodide symporter function by measuring increase in radioiodide avidity at 6 to 12 uM in presence of NIS inhibitor KClO4 after 24 hrs by gamma counting analysis based [125-I]-iodide uptake assay; assay type: cell-based
[12] = molecular target: T2, Estrogen-related receptor gamma (Homo sapiens); assay: Inverse agonist activity at ERRgamma in human CAL62 cells assessed as restoration of sodium iodide symporter function by measuring increase in radioiodide avidity at 6 to 12 uM in presence of NIS inhibitor KClO4 after 24 hrs by gamma counting analysis based [125-I]-iodide uptake assay; assay type: cell-based
[13] = molecular target: T2, Estrogen-related receptor gamma (Homo sapiens); assay: Inverse agonist activity at ERRgamma in human CAL62 cells assessed as increase in NIS mRNA expression at 6 to 12 uM by RT-PCR analysis; assay type: cell-based
[14] = molecular target: T2, Estrogen-related receptor gamma (Homo sapiens); assay: Inverse agonist activity at ERRgamma in human CAL62 cells assessed as increase in TSHR mRNA expression at 6 to 12 uM by RT-PCR analysis; assay type: cell-based
[15] = molecular target: T2, Estrogen-related receptor gamma (Homo sapiens); assay: Inverse agonist activity at ERRgamma in human CAL62 cells assessed as increase in TPO mRNA expression at 6 to 12 uM by RT-PCR analysis; assay type: cell-based
[16] = molecular target: T2, Estrogen-related receptor gamma (Homo sapiens); assay: Inverse agonist activity at ERRgamma in human CAL62 cells assessed as increase in TG mRNA expression at 6 to 12 uM by RT-PCR analysis; assay type: cell-based
[17] = molecular target: T2, Estrogen-related receptor gamma (Homo sapiens); assay: Inverse agonist activity at ERRgamma in human BHT101 cells assessed as increase in NIS mRNA expression at 6 to 12 uM by RT-PCR analysis; assay type: cell-based
[18] = molecular target: T2, Estrogen-related receptor gamma (Homo sapiens); assay: Inverse agonist activity at ERRgamma in human BHT101 cells assessed as increase in TSHR mRNA expression at 6 to 12 uM by RT-PCR analysis; assay type: cell-based
[19] = molecular target: T2, Estrogen-related receptor gamma (Homo sapiens); assay: Inverse agonist activity at ERRgamma in human BHT101 cells assessed as increase in TPO mRNA expression at 6 to 12 uM by RT-PCR analysis; assay type: cell-based
[20] = molecular target: T2, Estrogen-related receptor gamma (Homo sapiens); assay: Inverse agonist activity at ERRgamma in human BHT101 cells assessed as increase in TG mRNA expression at 6 to 12 uM by RT-PCR analysis; assay type: cell-based
CAL-62 = assay: Reduction in colony formation in human CAL62 cells at 6 uM after 24 hrs by crystal violet-based assay; assay type: ADME, cell-based; settings: cal-62, 24 h
BHT-101 = assay: Reduction in colony formation in human BHT101 cells at 6 uM after 24 hrs by crystal violet-based assay; assay type: ADME, cell-based; settings: bht-101, 24 h
[21] = Potentiation of radio-iodine avidity in human CAL62 cells xenografted mouse assessed as increase in radio-iodine accumulation in tumor at 200 mg/kg, po dosed once daily for 6 days followed by 50 uCi 124-iodine dosing and measured after 2 hrs by PET/CT imaging analysis; assay type: ADME, organism-based, Neoplasm; settings: in vivo
[22] = Genotoxicity in Salmonella typhimurium at 2 mM by mini Ames test; assay type: toxicity; settings: salmonella enterica subsp. enterica serovar typhimurium, 2000 µM
in vivo = settings: Sprague-Dawley, rat, iv, 1 mg/kg

Chain of CYP2C19 (P33261 whole entry): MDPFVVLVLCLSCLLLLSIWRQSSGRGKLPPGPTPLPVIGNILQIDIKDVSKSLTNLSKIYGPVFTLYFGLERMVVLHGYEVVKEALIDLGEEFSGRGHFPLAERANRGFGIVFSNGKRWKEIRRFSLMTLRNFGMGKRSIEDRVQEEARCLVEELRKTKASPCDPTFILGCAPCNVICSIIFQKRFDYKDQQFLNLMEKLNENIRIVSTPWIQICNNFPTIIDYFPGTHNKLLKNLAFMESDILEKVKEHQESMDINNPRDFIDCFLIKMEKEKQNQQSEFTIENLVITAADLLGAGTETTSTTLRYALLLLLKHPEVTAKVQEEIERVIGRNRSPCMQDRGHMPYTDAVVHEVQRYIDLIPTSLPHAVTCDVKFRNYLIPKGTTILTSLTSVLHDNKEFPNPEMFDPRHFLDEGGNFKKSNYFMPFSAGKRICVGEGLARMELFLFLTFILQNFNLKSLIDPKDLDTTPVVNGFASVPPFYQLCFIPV
Chain of CYP2C9 (P11712 whole entry): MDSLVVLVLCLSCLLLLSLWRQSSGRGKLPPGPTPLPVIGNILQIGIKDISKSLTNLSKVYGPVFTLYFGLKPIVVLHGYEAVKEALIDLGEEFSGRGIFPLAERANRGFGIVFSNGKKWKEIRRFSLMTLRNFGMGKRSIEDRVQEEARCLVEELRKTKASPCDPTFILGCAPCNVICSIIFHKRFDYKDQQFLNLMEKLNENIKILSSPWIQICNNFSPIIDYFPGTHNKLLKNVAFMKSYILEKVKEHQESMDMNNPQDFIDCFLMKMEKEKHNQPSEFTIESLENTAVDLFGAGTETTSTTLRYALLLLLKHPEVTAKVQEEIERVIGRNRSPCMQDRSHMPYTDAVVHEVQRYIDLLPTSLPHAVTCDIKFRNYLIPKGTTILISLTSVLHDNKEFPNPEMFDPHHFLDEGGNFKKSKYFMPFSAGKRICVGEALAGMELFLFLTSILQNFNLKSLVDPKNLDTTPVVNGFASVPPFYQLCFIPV
Chain of CYP2D6 (P10635 whole entry): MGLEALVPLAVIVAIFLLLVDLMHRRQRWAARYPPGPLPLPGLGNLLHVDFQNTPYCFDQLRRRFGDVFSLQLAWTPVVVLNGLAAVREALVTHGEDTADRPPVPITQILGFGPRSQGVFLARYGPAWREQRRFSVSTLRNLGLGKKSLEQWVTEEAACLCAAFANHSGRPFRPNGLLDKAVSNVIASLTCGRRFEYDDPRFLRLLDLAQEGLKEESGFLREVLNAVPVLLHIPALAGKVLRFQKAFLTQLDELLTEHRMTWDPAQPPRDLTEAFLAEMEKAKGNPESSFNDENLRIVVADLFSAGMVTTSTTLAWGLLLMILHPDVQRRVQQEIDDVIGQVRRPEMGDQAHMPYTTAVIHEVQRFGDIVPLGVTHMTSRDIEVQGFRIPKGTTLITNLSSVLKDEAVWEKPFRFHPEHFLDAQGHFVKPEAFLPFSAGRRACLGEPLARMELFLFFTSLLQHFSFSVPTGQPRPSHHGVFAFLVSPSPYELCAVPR
Chain of CYP3A4 (P08684 whole entry): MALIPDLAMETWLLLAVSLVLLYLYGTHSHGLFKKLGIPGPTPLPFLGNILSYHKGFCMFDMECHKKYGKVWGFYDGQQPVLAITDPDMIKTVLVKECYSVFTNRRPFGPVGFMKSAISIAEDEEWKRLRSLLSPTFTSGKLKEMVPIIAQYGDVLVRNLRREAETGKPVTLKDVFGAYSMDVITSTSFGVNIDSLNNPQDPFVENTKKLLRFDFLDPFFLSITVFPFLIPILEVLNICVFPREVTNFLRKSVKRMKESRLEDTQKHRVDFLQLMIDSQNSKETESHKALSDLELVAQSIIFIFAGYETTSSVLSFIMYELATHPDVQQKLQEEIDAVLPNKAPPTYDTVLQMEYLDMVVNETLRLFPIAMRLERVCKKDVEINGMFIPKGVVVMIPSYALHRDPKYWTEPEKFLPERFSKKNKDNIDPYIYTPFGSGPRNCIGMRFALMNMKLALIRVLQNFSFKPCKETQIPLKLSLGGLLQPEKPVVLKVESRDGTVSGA

Compound: CC(C)N1CCN(c2ccc(/C(=C(/CCCO)c3ccccc3)c3cccc(O)c3)cc2)CC1.Cl.Cl
- inhibition at 0.25 h, 10 µM (CYP1A2): 0%
- inhibition at 0.25 h, 10 µM (CYP2C9): 24.1%
- inhibition at 0.25 h, 10 µM (CYP2C19): 0%
- inhibition at 0.25 h, 10 µM (CYP2D6): 34%
- inhibition at 0.25 h, 10 µM (CYP3A4): 53.3%
- remaining at 0.5 h, 1 µM [1]: 65.4%
- remaining at 0.5 h, 1 µM [2]: 61.2%
- remaining at 0.5 h, 1 µM [3]: 54.9%
- remaining at 0.5 h, 1 µM [4]: 26.9%
- Papp at 5 h, 10 µM [5]: 1.29 ×10⁻⁶ cm/s
- AUC(0-inf) [6]: 1 µM·h
- AUC(0-inf) [7]: 4.71 µM·h
- Tmax [8]: 1.7 h
- Activity [9]: Active
- Activity [10]: Active
- Activity [11]: inactive
- Activity [12]: inactive
- Activity [13]: Dose-dependent effect
- Activity [14]: Dose-dependent effect
- Activity [15]: Dose-dependent effect
- Activity [16]: Dose-dependent effect
- Activity [17]: Active
- Activity [18]: Active
- Activity [19]: Active
- Activity [20]: Active
- Activity (CAL-62): Non-Toxic
- Activity (BHT-101): Non-Toxic
- Activity [21]: Active
- Activity [22]: Non-Toxic
- AUC (in vivo): 0.99 µM·h
